Results: patent US7601332B2, “Vitamin receptor binding drug delivery conjugates” (priority 2003, dated 2009)

Columns and labels:
[1] = system: M109 tumors (folate receptor-positive); test: Inhibition of subcutaneous M109 tumor growth in mice; type: in vivo; conditions: Balb/c mice, s.c. M109 tumors, i.v. twice a week for 4 weeks, 2-10 μmol/kg
Procedure: The anti-tumor activity of the compounds of Examples 9b (EC111) and 9c (EC112), where the drug is daunorubicin, when administered intravenously (i.v.) to tumor-bearing animals, was evaluated in Balb/c mice bearing subcutaneous M109 tumors. Four days post tumor inoculation in the subcutis of the right axilla with 1×10^6 M109 cells, mice (5/group) were injected i.v. twice a week for 4 weeks with 2-10 μmol/kg of the compound of either Example 9b or Example 9c or with unconjugated daunorubicin or PBS. Tumor growth was measured using calipers at 3-day or 4-day intervals in each treatment group. Tumor volumes were calculated using the equation V=a×b^2/2, where “a” is the length of the tumor and “b” is the width expressed in millimeters. Animal body weight was also determined at 3-day or 4-day intervals. […]
The anti-tumor activity of the compound of Example 16b (EC145), where the drug is deacetylvinblastine monohydrazide, when administered intravenously (i.v.) to tumor-bearing animals, was evaluated in Balb/c mice bearing subcutaneous M109 tumors. […] Tumor growth was measured using calipers at 2-day or 3-day intervals in each treatment group. Tumor volumes were calculated using the equation V=a×b^2/2, where “a” is the length of the tumor and “b” is the width expressed in millimeters. […]

[2] = Toxicity based on animal body weights in tumor-bearing mice; type: in vivo; conditions: Balb/c mice, s.c. M109 tumors, i.v. twice a week for 4 weeks, 2-10 μmol/kg
Procedure: The anti-tumor activity of the compounds of Examples 9b (EC111) and 9c (EC112), where the drug is daunorubicin, when administered intravenously (i.v.) to tumor-bearing animals, was evaluated in Balb/c mice bearing subcutaneous M109 tumors. Four days post tumor inoculation in the subcutis of the right axilla with 1×10^6 M109 cells, mice (5/group) were injected i.v. twice a week for 4 weeks with 2-10 μmol/kg of the compound of either Example 9b or Example 9c or with unconjugated daunorubicin or PBS. Tumor growth was measured using calipers at 3-day or 4-day intervals in each treatment group. Tumor volumes were calculated using the equation V=a×b^2/2, where “a” is the length of the tumor and “b” is the width expressed in millimeters. Animal body weight was also determined at 3-day or 4-day intervals.
The protocol was as described in Example 42 except that the compound of Example 10a (EC105) was used, where the drug is bis-indolyl-seco-CBI. The compound of Example 10a was injected at a dose of 0.3 μmol/kg. Also, two subcutaneous tumor models were tested including the M109 model (folate receptor-positive) and the 4T1 model (folate receptor-negative), and in some animals a 67-fold excess of free folate (20 μmol/kg; FA) was coinjected with the conjugate (i.e., the compound of Example 10a).

| SMILES | anti-tumor activity (growth of M109 tumors) [1] | toxicity based on animal body weights [2] |
| --- | --- | --- |
| COc1cccc2c1C(=O)c1c(O)c3c(c(O)c1C2=O)C[C@@](O)(/C(CO)=N\NC(=O)CCN1C(=O)CC(SC[C@H](NC(=O)CC[C@H](NC(=O)c2ccc(NCc4cnc5nc(N)[nH]c(=O)c5n4)cc2)C(=O)O)C(=O)O)C1=O)C[C@@H]3O[C@H]1CC(N)[C@H](O)C(C)O1 (stereo partly shown) [Example 9c] | effective in delaying the growth of M109 tumors | no apparent toxicity |
| COc1cccc2c1C(=O)c1c(O)c3c(c(O)c1C2=O)C[C@@](O)(C(=O)CO)C[C@@H]3O[C@H]1C[C@H](N)[C@H](O)[C@H](C)O1 [doxorubicin] | provided an anti-tumor response | concomitant toxicity |
